Active and inactive are the calls of the source. How the calls were made is not given here.
molecular target: UPR counterscreen luciferase reporter, luminescence; assay: activators in UPR counterscreen luciferase reporter, dose response, counter-screen for adaptive UPR activator project, cell-based, luminescence (AID 489027)

**Q.** Which EC50 does the source give for `Cc1cccc2cc(C(c3nnnn3Cc3ccccc3)N3CCCc4ccccc43)c(=O)[nH]c12` (stereo unspecified) here?
**A.** inactive

**Q.** Which EC50 does the source give for `Cc1cccc(NC(=O)CSc2nc(C)c(CC(=O)c3ccc(Br)cc3)c(C)c2C#N)c1C` here?
**A.** > 80 µM (inactive)

**Q.** With `C#CCn1c(=NC(=O)c2ccc(S(=O)(=O)N3CCc4ccccc4C3)cc2)sc2cc(S(N)(=O)=O)ccc21` as the molecule, how does the EC50 read?
**A.** > 80 µM (inactive)

**Q.** For `CC(C)CN=C(NS(=O)(=O)c1ccccc1)C(Cl)(Cl)Cl`, which EC50 is on record?
**A.** 16.2 µM

**Q.** `COc1ccc(OC)c(-c2nnc3n2N=C(c2ccc(OC)c(OC)c2)CS3)c1` was tested. Which EC50 did it give?
**A.** > 80 µM (inactive)

**Q.** How did the EC50 turn out when `Cc1ccc(NC(=O)c2nc[nH]c2C(=O)NCCCNC(=O)c2[nH]cnc2C(=O)Nc2ccc(C)cc2)cc1` was run?
**A.** > 80 µM (inactive)

**Q.** `CC1CN(S(=O)(=O)c2ccc(C(=O)Nc3nc(-c4cc5ccccc5o4)cs3)cc2)CC(C)O1` (stereo unspecified) was tested. Which EC50 did it give?
**A.** 13.2 µM

**Q.** For `COc1ccccc1CCNC(=O)C1CCN(c2nnc(C)c3c(C)n(-c4ccc(C)cc4)nc23)CC1`, which EC50 is on record?
**A.** 18.1 µM

**Q.** For `CCOC(=O)C1=C(C)n2c(s/c(=C/c3cccc([N+](=O)[O-])c3)c2=O)=NC1c1ccc(O)c(OC)c1` (stereo unspecified), which EC50 is on record?
**A.** inactive

**Q.** How did the EC50 turn out when `O=C(NCc1ccccc1Br)c1cccc2c1C(=O)c1ccc(-c3ccc(OC(F)(F)F)cc3)cc1S2(=O)=O` was run?
**A.** 9.03 µM

**Q.** Which EC50 does the source give for `COc1ccc(-c2cc(C(F)F)n3ncc(C(=O)Nc4ccc(C(=O)N5CCOCC5)cc4)c3n2)cc1` here?
**A.** > 80 µM (inactive)

**Q.** Which EC50 does the source give for `O=C(CC1C[C@H](C(=O)N2CCCCC2)[C@@]2(CCc3ccccc3)c3[nH]c4ccccc4c3CCN2C1=O)NCCC1=CCCCC1` (stereo partly specified) here?
**A.** inactive

**Q.** Which EC50 does the source give for `Cc1nn(Cc2ccccc2)c(C)c1NC(=O)CSc1nc(C2CC2)nc2c1cnn2-c1ccccc1` here?
**A.** inactive

**Q.** Which EC50 does the source give for `COc1ccc2[nH]c3nc(SCc4nnc(-c5ccc(C)cc5)o4)nnc3c2c1` here?
**A.** 19.7 µM

**Q.** For `Oc1ccc(/C=N/Nc2ncnc3c2ncn3Cc2ccccc2)cc1O`, which EC50 is on record?
**A.** 7.62 µM

**Q.** How did the EC50 turn out when `COc1ccc2nc(/C(C#N)=C\c3ccc(Oc4ccc([N+](=O)[O-])cn4)cc3)[nH]c2c1` was run?
**A.** > 80 µM (inactive)

**Q.** For `CC(C)C(=O)N(c1cc2sc(=O)oc2c2ccccc12)S(=O)(=O)c1cccs1`, which EC50 is on record?
**A.** 16.3 µM

**Q.** For `CCCCNc1c(-c2ccc(-c3ccc(C(C)=O)cc3)c(OC)c2)nc2cc(C)ccn12`, which EC50 is on record?
**A.** > 80 µM (inactive)

**Q.** With `Cc1cccc2c1Sc1ccc(Cl)cc1CC2N1CCNCC1` (stereo unspecified) as the molecule, how does the EC50 read?
**A.** > 80 µM (inactive)

**Q.** How did the EC50 turn out when `Cn1ncc(N=Cc2c(O)ccc3ccccc23)c1C(=O)Nc1cccc(Cl)c1` was run?
**A.** > 80 µM (inactive)

**Q.** How did the EC50 turn out when `Cc1cc(NC(=O)c2cc(-c3ccccn3)nc3ccc(Br)cc23)no1` was run?
**A.** > 80 µM (inactive)

**Q.** `N#Cc1ccccc1NC(=O)COc1c(Br)cc(Br)c2cccnc12` was tested. Which EC50 did it give?
**A.** inactive

**Q.** For `Cc1cccc(NC(=O)/C(C#N)=C/c2cn(CC(=O)NCc3ccco3)c3ccccc23)c1C`, which EC50 is on record?
**A.** > 80 µM (inactive)

**Q.** Which EC50 does the source give for `Oc1cc(-c2ccc(N3CCCCC3)nc2)cc2cccnc12` here?
**A.** > 80 µM (inactive)

**Q.** For `COc1ccc(-c2cc(-c3ccccc3)c(C#N)c(S(C)(=O)=O)n2)cc1`, which EC50 is on record?
**A.** 5.05 µM

**Q.** Which EC50 does the source give for `Cn1c(-c2ccccc2)c(/C=N/NC(=O)c2ccc(O)cc2)c2ccccc21` here?
**A.** > 80 µM (inactive)

**Q.** `Oc1cccc2ccc(/C=C/c3ccc(Br)s3)nc12` was tested. Which EC50 did it give?
**A.** inactive

**Q.** `CCOC(=O)C1=C(C)N=C2c3ccccc3C(=O)C2C1c1ccc(C)cc1` (stereo unspecified) was tested. Which EC50 did it give?
**A.** > 80 µM (inactive)

**Q.** Which EC50 does the source give for `FC(F)(F)c1nnc2c(Sc3ccc(Cl)cc3)nc3ccccc3n12` here?
**A.** 4.67 µM

**Q.** For `COc1cc(N(C(=O)Cc2cccs2)C(C(=O)NC2CCCCC2)c2ccc(C)cc2)ccc1-n1cnnn1` (stereo unspecified), which EC50 is on record?
**A.** > 80 µM (inactive)

**Q.** For `CSc1ccccc1NC(=O)c1cc(-c2cccnc2)nc2ccc(Br)cc12`, which EC50 is on record?
**A.** > 80 µM (inactive)

**Q.** `CC(=O)c1cccc(N=Cc2c(O)c3ccccc3oc2=O)c1` was tested. Which EC50 did it give?
**A.** 7.69 µM

**Q.** With `CCCCCCCCCn1c2c(c(=N)c3c1CCC3)CCCC2` as the molecule, how does the EC50 read?
**A.** 9 µM

**Q.** How did the EC50 turn out when `Cc1cc(NC(=O)c2cc(-c3ccncc3)nc3c(C)cccc23)no1` was run?
**A.** 16 µM

**Q.** With `Cc1cc(SCC(=O)c2ccc(O)c(O)c2)n2nc(C)c(-c3ccccc3)c2n1` as the molecule, how does the EC50 read?
**A.** > 80 µM (inactive)

**Q.** With `COc1cc(NC(=O)c2cncc(-c3ccc(C#N)cc3)c2)cc(C(=O)Nc2cccc(C(F)(F)F)c2)c1` as the molecule, how does the EC50 read?
**A.** inactive

**Q.** With `CCc1ccc2nc(N(CCCN(C)C)C(=O)c3ccc(S(=O)(=O)N4CCc5ccccc5C4)cc3)sc2c1` as the molecule, how does the EC50 read?
**A.** 12.7 µM

**Q.** `Cc1ccc(/C=C/C(=O)c2cc(Br)ccc2OC(=O)c2ccco2)cc1` was tested. Which EC50 did it give?
**A.** inactive

**Q.** Which EC50 does the source give for `COC(=O)c1sccc1NC(=O)c1cc(-c2cccc(C)c2)nc2ccccc12` here?
**A.** > 80 µM (inactive)

**Q.** With `COc1ccc(-c2sc3ccccc3c2-c2ccc(OCCN(C)C)cc2)cc1` as the molecule, how does the EC50 read?
**A.** 13.3 µM

**Q.** Which EC50 does the source give for `CC(C)N(C(=O)[C@H]1C[C@H](CC(=O)NCC23CC4CC(CC(C4)C2)C3)C(=O)N2CCc3c([nH]c4ccc(Cl)cc34)[C@]12C)C(C)C` here?
**A.** inactive

**Q.** For `CCc1ccc(-c2nc(CN3CCC(C(=O)NCCN(CC)c4ccccc4)CC3)c(C)o2)cc1`, which EC50 is on record?
**A.** > 80 µM (inactive)

**Q.** For `CCOc1ccc2nc(NC3=NC(c4ccc(OC)cc4)CC(=O)N3)nc(C)c2c1` (stereo unspecified), which EC50 is on record?
**A.** 11.8 µM

**Q.** For `COc1cccc(/C=N/Nc2ccc([N+](=O)[O-])cn2)c1O`, which EC50 is on record?
**A.** > 80 µM (inactive)

**Q.** Which EC50 does the source give for `C/C(=N/Nc1cc(-c2ccccc2)nc(-c2ccccc2)n1)c1ccc(O)cc1` here?
**A.** 15.4 µM

**Q.** How did the EC50 turn out when `CC1CCCN(c2ccc(C(=O)NCc3cccs3)cn2)C1` (stereo unspecified) was run?
**A.** > 80 µM (inactive)

Reference: PubChem BioAssay AID489027 (Sanford-Burnham Center for Chemical Genomics, 2010)
